From patent US9580449B2, “Compositions and methods for the production of pyrimidine and pyridine compounds with BTK inhibitory activity” (Merck Patent GmbH, priority 2011, dated 2017)

Target: full-length human BTK (Homo sapiens (Human), UniProt Q06187)
Test: BTK IC50 enzyme assay (microfluidic off-chip mobility shift kinase assay)
Type: biochemical
Conditions: incubated for 90 min. at 27 C; read-out: Time Dependent BTK Enzyme Assay IC50
Procedure, shortened: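 Off-chip microfluidic mobility shift assay on full-length human BTK; substrate-to-product conversion measured by charge/mass separation of phosphorylated peptide after reaction stop.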

Chain of full-length human BTK (Q06187 whole entry): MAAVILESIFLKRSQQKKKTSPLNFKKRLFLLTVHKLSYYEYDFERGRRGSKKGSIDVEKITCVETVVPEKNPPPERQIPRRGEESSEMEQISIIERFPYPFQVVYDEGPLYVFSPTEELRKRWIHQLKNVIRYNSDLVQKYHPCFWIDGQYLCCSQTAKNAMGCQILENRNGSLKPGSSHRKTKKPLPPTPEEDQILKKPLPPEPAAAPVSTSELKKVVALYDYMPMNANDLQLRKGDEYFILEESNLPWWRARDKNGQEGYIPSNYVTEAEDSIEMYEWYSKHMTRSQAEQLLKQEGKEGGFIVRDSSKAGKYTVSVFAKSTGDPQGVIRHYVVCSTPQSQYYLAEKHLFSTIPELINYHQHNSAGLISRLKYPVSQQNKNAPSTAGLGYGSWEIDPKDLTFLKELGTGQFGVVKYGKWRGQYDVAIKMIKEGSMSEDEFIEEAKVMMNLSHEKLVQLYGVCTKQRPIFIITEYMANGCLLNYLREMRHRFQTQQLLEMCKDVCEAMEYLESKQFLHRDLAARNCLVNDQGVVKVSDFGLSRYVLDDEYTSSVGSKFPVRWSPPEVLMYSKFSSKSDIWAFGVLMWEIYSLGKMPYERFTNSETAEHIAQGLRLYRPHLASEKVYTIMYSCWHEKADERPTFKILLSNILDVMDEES

IC50 | Compound
< 100 nM | Nc1ncnc(Oc2cccc(NC(=O)CCl)c2)c1-c1ccc(OCc2cccc(F)c2)cc1 [A345, N-(3-{6-Amino-5-[4-(3-fluoro-benzyloxy)-phenyl]-pyrimidin-4-yloxy}-phenyl)-2-chloro-acetamide]
< 100 nM | CCC(=O)Nc1cccc(Oc2ncnc(N)c2-c2ccc(OCc3ccccc3)cc2)c1 [A346, N-{3-[6-Amino-5-(4-benzyloxy-phenyl)-pyrimidin-4-yloxy]-phenyl}-propionamide]
< 100 nM | Nc1ncnc(Oc2cccc(NC(=O)CCl)c2)c1-c1ccc(OCc2ccccc2)cc1 [A347, N-{3-[6-Amino-5-(4-benzyloxy-phenyl)-pyrimidin-4-yloxy]-phenyl}-2-chloro-acetamide]
< 100 nM | C=CC(=O)Nc1cccc(Oc2ncnc(N)c2-c2ccc(OCc3ccccc3)c(F)c2)c1 [A348, N-{3-[6-Amino-5-(4-benzyloxy-3-fluoro-phenyl)-pyrimidin-4-yloxy]-phenyl}-acrylamide]
< 100 nM | C=CC(=O)Nc1cccc(Oc2ncnc(N)c2-c2ccc(OCc3ccccc3)cc2F)c1 [A349, N-{3-[6-Amino-5-(4-benzyloxy-2-fluoro-phenyl)-pyrimidin-4-yloxy]-phenyl}-acrylamide]
< 100 nM | Nc1ncnc(Oc2cccc(NC(=O)CCl)c2)c1-c1ccc(OCc2ccccc2)cc1F [A350, N-{3-(6-Amino-5-(4-benzyloxy-2-fluoro-phenyl)-pyrimidin-4-yloxy}-phenyl)-2-chloro-acetamide]
< 100 nM | Nc1ncnc(Oc2cccc(NC(=O)CCl)c2)c1-c1ccc(OCc2ccccc2)c(F)c1 [A351, N-{3-[6-Amino-5-(4-benzyloxy-3-fluoro-phenyl)-pyrimidin-4-yloxy]-phenyl}-2-chloro-acetamide]
< 100 nM | C=CC(=O)Nc1cccc(Oc2ncnc(N)c2-c2ccc(NC(=O)c3ccccc3)cc2)c1 [A352, N-{4-[4-(3-Acryloylamino-phenoxy)-6-amino-pyrimidin-5-yl]-phenyl}-benzamide]

System: PBMC
Test: Time Dependent PBMC IC50 assay
Type: cell-based
Conditions: not given
Description: Compounds described by embodiments of the present invention were assayed using a time dependent PMBC assay.

Compound | IC50
C=CC(=O)N[C@@H]1CCC[C@H](Nc2ncnc(N)c2-c2ccc(Oc3ccccc3)cc2)C1 (relative stereo) [A51, N-(cis-3-((6-amino-5-(4-phenoxyphenyl)pyrimidin-4-yl)amino)cyclohexyl)acrylamide] | < 1000 nM
C=CC(=O)N1CC[C@@H](Nc2ncnc(N)c2-c2ccc(Oc3ccccc3)cc2)C1 [A1, (R)-1-(3-((6-amino-5-(4-phenoxyphenyl)pyrimidin-4-yl)amino)pyrrolidin-1-yl)prop-2-en-1-one] | < 1000 nM
C=CC(=O)N1CC[C@H](CNc2ncnc(N)c2-c2ccc(Oc3ccccc3)cc2)C1 [A4, (R)-1-(3-(((6-amino-5-(4-phenoxyphenyl)pyrimidin-4-yl)amino)methyl)pyrrolidin-1-yl)prop-2-en-1-one] | < 1000 nM
C=CS(=O)(=O)N1CCC(CNc2ncnc(N)c2-c2ccc(Oc3ccccc3)cc2)CC1 [A10, 5-(4-phenoxyphenyl)-N4-((1-(vinylsulfonyl)piperidin-4-yl)methyl)pyrimidine-4,6-diamine] | < 1000 nM
C=CC(=O)N1CC[C@H](COc2ncnc(N)c2-c2ccc(Oc3ccccc3)cc2)C1 [A26, (S)-1-(3-(((6-amino-5-(4-phenoxyphenyl)pyrimidin-4-yl)oxy)methyl)pyrrolidin-1-yl)prop-2-en-1-one] | < 1000 nM
C=CC(=O)N1CCC(CNc2ncnc(N)c2-c2ccc(Oc3cccc(F)c3)cc2)CC1 [A34, 1-(4-(((6-amino-5-(4-(3-fluorophenoxy)phenyl)pyrimidin-4-yl)amino)methyl)piperidin-1-yl)prop-2-en-1-one] | < 1000 nM
C=CC(=O)N1CC[C@@H](COc2ncnc(N)c2-c2ccc(Oc3ccccc3)cc2)C1 [A38, (R)-1-(3-(((6-amino-5-(4-phenoxyphenyl)pyrimidin-4-yl)oxy)methyl)pyrrolidin-1-yl)prop-2-en-1-one] | < 1000 nM
Nc1ncnc(NCC2CCN(C(=O)CCl)CC2)c1-c1ccc(Oc2ccccc2)cc1 [A45, 1-(4-(((6-amino-5-(4-phenoxyphenyl)pyrimidin-4-yl)amino)methyl)piperidin-1-yl)-2-chloroethanone] | < 1000 nM
